According to US6380218B1, “Nicotinamide derivatives” (Pfizer Inc, priority 1997, dated 2002):

Compound | melting point [°C]
O=C(NCc1ccccc1Cl)c1cccnc1OCc1ccc(F)cc1 [Example 70, N-(2-Chloro-benzyl)-2-(4-fluoro-benzyloxy)-nicotinamide] | 64 to 66
CCCCNC(=O)c1cccnc1Oc1cccnc1 [Example 174, N-Butyl-2-(pyridin-3-yloxy)-nicotinamide] | 55 to 56
O=C(NCc1ccccc1Cl)c1cccnc1Oc1cccc(Cl)c1 [Example 189, N-(2-Chloro-benzyl)-2-(3-chloro-phenoxy)-nicotinamide] | 126 to 128
O=C(NCc1nccs1)c1cccnc1Oc1cccnc1 [Example 24, 2-(Pyridin-3-yloxy)-N-thiazol-2-ylmethyl-nicotinamide] | 94 to 96
C[C@H](NC(=O)c1cccnc1Oc1ccc(F)cc1)c1cccs1 [Example 6, (S)(−)2-(4-Fluoro-phenoxy)-N-(1-thiophen-2-yl-ethyl)-nicotinamide] | 59 to 61
CCOC(=O)c1cc2cc(CNC(=O)c3cccnc3Oc3ccc(F)cc3)ccc2[nH]1 [Example 75, 5-({[2-(4-Fluoro-phenoxy)-pyridine-3-carbonyl]-amino}-methyl)-1H-indole-2-carboxylic acid ethyl ester] | 185 to 187
CC(C)(O)c1ccc(CNC(=O)c2cccnc2Oc2ccc(F)c(C#N)c2)c(F)c1 [Example 99, 2-(3-Cyano-4-fluoro-phenoxy)-N-[2-fluoro4-(1-hydroxy-1-methyl-ethyl)-benzyl]-nicotinamide] | 157 to 159
CC(C)(O)c1ccc(CNC(=O)c2cccnc2Oc2ccc(F)c(F)c2)cc1 [Example 231, 2-(3,4-Difluoro-phenoxy)-N-[4-(1-hydroxy-1-methyl-ethyl)-benzyl]-nicotinamide] | 98 to 100
Cc1ccc(C(C)NC(=O)c2cccnc2Oc2cncc(Cl)c2)s1 (stereo not shown) [Example 50, 2-(5-Chloro-pyridin-3-yloxy)-N-[1-(5-methyl-thiophen-2-yl)-ethyl]-nicotinamide] | 75 to 77
O=C(NCc1cc2ccccc2s1)c1cccnc1Oc1cccnc1 [Example 22, N-Benzo[b]thiophen-2-ylmethyl-2-(pyridin-3-yloxy)-nicotinamide] | 93 to 95
CC(=O)Nc1cccc(Oc2ncccc2C(=O)NCc2ccc(C(C)(C)O)cc2)c1 [Example 126, 2(3-Acetylamino-phenoxy)-N-[4-(1-hydroxy-1-methyl-ethyl)-benzyl]-nicotinamide] | 155 to 157
CC(C)(O)c1ccc(CNC(=O)c2cccnc2Oc2cccc3c2CCC3=O)cc1 [Example 284, N-[4-(1-Hydroxy-1-methyl-ethyl)-benzyl]-2-(1-oxo-indan-4-yloxy)-nicotinamide] | 145 to 147
O=C(CCc1ccc(OC(F)(F)F)cc1)c1cccnc1Oc1ccc(F)cc1 [Example 253, 1-[2-(4-Fluoro-phenoxy)-pyridin-3-yl]-3-(4-trifluoromethoxy-phenyl)-propan-1-one] | 79 to 81
COc1ccc(CNC(=O)c2cccnc2Oc2cccnc2)cc1 [Example 29, N-(4-Methoxy-benzyl)-2-(pyridin-3-yloxy)-nicotinamide] | 62 to 64
O=C(NCc1sc(Cl)cc1Cl)c1cccnc1Oc1ccc(F)cc1 [Example 97, N-(3,5-Dichloro-thiophen-2ylmethyl)-2-(4-fluoro-phenoxy)-nicotinamide] | 132 to 134

Next, values leading:

melting point [°C] | Compound
116 to 118 | O=C(NCc1ccc(C2(O)CCC2)cc1)c1cccnc1Oc1cccnc1 [Example 42, N-[4-(1-Hydroxy-cyclobutyl)-benzyl]-2-(pyridin-3-yloxy)-nicotinamide]
118 to 119 | O=C(NCc1ccccn1)c1cccnc1Oc1cccnc1 [Example 181, N-Pyridin-2-ylmethyl-2-(pyridin-3-yloxy)-nicotinamide]
74 to 76 | CC(C)(O)c1cc(Cl)c(CNC(=O)c2cccnc2Oc2cccnc2)s1 [Example 44, N-[3-Chloro-5-(1-hydroxy-1-methyl-ethyl)-thiophen-2-ylmethyl]-2-(pyridin-3-yloxy)-nicotinamide]
115 to 117 | CC(C)(O)c1sc(CNC(=O)c2cccnc2Oc2ccc(F)cc2)cc1Cl [Example 81, N-[4-Chloro-5-(1-hydroxy-1-methyl-ethyl]-thiophen-2-ylmethyl]-2-(4-fluoro-phenoxy)-nicotinamide]
82 to 83 | O=C(CCc1ccccc1)c1cccnc1Oc1ccc(F)cc1 [Example 256, 1-[2-(4-Fluorophenoxy)-3-pyridinyl]-3-phenyl-1-propanone]
126 to 128 | CN(CC(=O)c1cccnc1Oc1ccc(F)cc1)c1ccccc1 [Example 270, 1-[2-(4-Fluoro-phenoxy)-pyridin-3-yl]-2-(methyl-phenyl-amino)-ethanone]
135 to 137 | Cc1noc2ccc(Oc3ncccc3C(=O)NCC3CCC(C(C)(C)O)CC3)cc12 (stereo not shown) [Example 315, N-(4-(1-Hydroxy-1-methyl-ethyl)-cyclohexylmethyl)-2-(3-methyl-benzo(d)-isoxazol-5-yloxy)-nicotinamide]
110 to 112 | CC(NC(=O)c1cccnc1Oc1cncc(Cl)c1)c1ccc(Cl)s1 (stereo not shown) [Example 49, 2-(5-Chloro-pyridin-3-yloxy)-N-[1-(5-chloro-thiophen-2-yl)-ethyl]-nicotinamide]
91 to 93 | CC(C)(C)C(=O)Oc1ccc(CNC(=O)c2cccnc2Oc2ccc(F)cc2)cc1 [Example 130, 2,2-Dimethyl-propionic acid 4-({[2-(4-fluoro-phenoxy)-pyridine-3-carbonyl]-amino}-methyl)-phenyl ester]
99.5 to 101.5 | CN(C)c1ccc(CNC(=O)c2cccnc2Oc2ccc(F)cc2)cc1 [Example 247, N-[[4-(Dimethylamino)phenyl]methyl]-2-(4-fluorophenoxy)-3-pyridinecarboxamide]
134 to 135 | O=C(NCc1cccc2[nH]ccc12)c1cccnc1Oc1cccnc1 [Example 180, N-(1H-Indol-4-ylmethyl)-2-(pyridin-3yloxy)-nicotinamide]
51 to 53 | CC(C)(O)c1ccc(CNC(=O)c2cccnc2Oc2cccc(S(C)(=O)=O)c2)cc1 [Example 207, N-[4-(1-Hydroxy-1-methyl-ethyl)-benzyl]-2-(3-methanesulfonyl-phenoxy)-nicotinamide]
97 to 99 | CC(C)(O)c1ccc(CNC(=O)c2cccnc2Oc2cccc(C#N)c2)cc1 [Example 113, 2-(3-Cyano-phenoxy)-N-[4-(1-hydroxy-1-methyl-ethyl)-benzyl]-nicotinamide]
111 to 113 | Cc1ccc(CNC(=O)c2cccnc2Oc2cccnc2)s1 [Example 18, N-(5-Methyl-thiophen-2-ylmethyl)-2-(pyridin-3-yloxy)-nicotinamide]
105 to 107 | CC(=O)c1cccc(Oc2ncccc2C(=O)NCC2CCC(C(C)(C)O)CC2)c1 (stereo not shown) [Example 242, 2-(3-Acetyl-phenoxy)-N-[4-(1-hydroxy-1-methyl-ethyl)-cyclohexylmethyl]-nicotinamide]
89 to 91 | Cc1ccsc1CNC(=O)c1cccnc1Oc1cccnc1 [Example 20, N-(3-Methyl-thiophen-2-ylmethyl)-2-(pyridin-3-yloxy)-nicotinamide]
